{"source": "patent US20240277717A1", "about": "“APPLICATION OF GANCICLOVIR IN PREPAPRATION OF MEDICINE FOR TREATING ALLERGIC RHINITIS” (Union Hospital, Tongji Medical College, Huazhong University …, priority 2023, published 2024)", "key": {"[1]": {"system": "Eosinophil cationic protein (ECP)", "experiment": "ECP in the nasal secretions by ELISA", "assay_type": "in vivo, human", "experimental": "Two pieces of 1.0 centimeter (cm)×1.5 cm sterile medical sponge are gently placed into the patient's bilateral nasal cavity for 1-5 minutes (min). After the sponge adsorbs enough the nasal secretions, the sponge is gently removed and put into a 2 milliliters (mL) syringe. The nasal secretions are squeezed out and collected in a 1.5 mL centrifuge tube, centrifuged at 3000 revolutions per minute (rpm) for 5 min, and the supernatant is taken and placed in a refrigerator at −80° C. for testing. Eosinophil cationic protein (ECP) in the nasal secretions is detected by enzyme-linked immunosorbent assay (ELISA). The ECP-ELISA kit is from Zhongmin Taike Biotechnology Co., Ltd. Cytokine levels of interleukin (IL)-2, IL-4, IL-5, IL-6, IL-13, IL-17A, IL-28A, IL-33, interferon (IFN)-α, IFN-β, IFN-γ, IFN-λ, and Eotaxin in the nasal secretions are measured by using Luminex (R&D; LXSAHM-13)."}, "[2]": {"system": "eosinophils in nasal secretions", "experiment": "Nasal secretion smears, percentage of eosinophils in inflammatory cells", "assay_type": "in vivo, human", "from_the_text": "The patients blow their nose (both sides), or gently rotate a glass rod at a front end of the patients' nasal vestibule to obtain the nasal secretions, avoiding rubbing the mucosal surface as much as possible. The obtained nasal secretions are evenly and lightly coated on slides, and a coverage area of the nasal secretion smear is required to exceed ⅔ of the slides. After natural air drying, the slides are dyed with Wright-Giemsa stain (Baso Diagnostics Inc. Zhuhai; China). After dyeing, cells are counted under an optical microscope. A percentage of eosinophils in inflammatory cells under 10×100 times microscope is observed, and an average value of 5 visual fields is taken as a result."}, "[3]": {"conditions": "GCV effective group and GCV ineffective group"}}, "data": [{"smiles": "Nc1nc(O)c2ncn(COC(CO)CO)c2n1", "note": "[GCV, Ganciclovir]", "values": [{"measurement": "ECP in nasal secretions, change after GCV treatment", "setting": "[1]; [3]", "result": "no significant change"}, {"measurement": "ECP in nasal secretions, after treatment", "setting": "[1]; GCV effective group, before 42.38 ± 41.04", "result": "20.18 ± 18.42", "unit": "µg/mL"}, {"measurement": "ECP in nasal secretions, after treatment", "setting": "[1]; GCV ineffective group, before 82 ± 18.01", "result": "45.993 ± 37.12", "unit": "µg/mL"}, {"measurement": "percentage of eosinophils in nasal secretions, change after GCV treatment", "setting": "[2]; [3]", "result": "no significant change"}, {"measurement": "Nasal secretion eosinophils, after treatment", "setting": "[2]; GCV effective group, before 90.54 ± 6.24", "result": "93.23 ± 11.99", "unit": "%"}, {"measurement": "Nasal secretion eosinophils, after treatment", "setting": "[2]; GCV ineffective group, before 56 ± 46.30", "result": "54 ± 44.54", "unit": "%"}]}]}
